Values of other authors as cited in patent publication US9583325B2, “System and method of delicate membrane condensed phase membrane introduction mass spectrometry (CP-MIMS)” (priority 2013, dated 2017).

Legend:
[1] = SRC Physical Properties Database
[2] = for Log Kow: Table 1, SRC Physical Properties Database

| Compound | Vapour pressure [1] | Log Kow [2] | log Kow ([2]; values given in text of Example 10) |
| --- | --- | --- | --- |
| CC(C)C1=CC2=CC[C@@H]3[C@](C)(CCC[C@@]3(C)C(=O)O)[C@H]2CC1 [Abietic Acid, Abietic acid] | 4.3 × 10^−5 Pa | 6.46 |  |
| Cc1ccc(C)c(OCCCC(C)(C)C(=O)O)c1 [Gemfibrozil, 5-(2,5-dimethylphenoxy)-2,2-dimethyl-pentanoic acid] | 8.1 × 10^−5 Pa | 4.30 |  |
| Oc1cc(Cl)ccc1Oc1ccc(Cl)cc1Cl [Triclosan, 5-chloro-2-(2,4-dichlorophenoxy)phenol] | 8.6 × 10^−5 Pa | 4.76 |  |
| nonylphenol | 1.15 Pa | 5.76 | 6.04 |
